We go through one compound from paper PMC9020739, “Identification of a two-component regulatory system involved in antimicrobial peptide resistance in Streptococcus pneumoniae” (PLoS Pathogens, 2022).

In brackets after ≈: the same amount, converted by molar mass. Where a SMILES comes first, the peptide text is derived from it. Bridges are numbered along the chain shown (N, C = ends). [ ]: non-standard residue; d: D form. The star is where a group is joined. Ileψ(thiazoline)Cys = CC[C@H](C)[C@H](N)C1=N[C@H](C(=O)*)CS1; dOrn = NCCC[C@@H](N)C(=O)O

Holding throughout (type): cell-based, Streptococcus pneumoniae
One assay relates to S. pneumoniae D39 WT. Conditions: D39 strain. Here is the method:
(§1) The MIC of various antimicrobial peptides for R6, R800 and D39 strains was determined by classical 2-fold broth dilution method. Cells were first grown in Todd-Hewitt medium at 37°C without agitation and in anaerobic conditions until the absorbance reaches approximatively 0.3. Complementation strains were grown with 0.5 μM ComS inducer until the appropriate OD. Cells were then diluted at final OD600nm = 0.002 in 96-well plates containing 300 μL of Todd-Hewitt medium (and 2 μM ComS inducer for the complementation strains) with serial dilutions of antimicrobial peptides. Pneumococcal growth was monitored by a microplate reader (TECAN) at 37°C without agitation. The absorbance was followed at 600 nm every 15 min for 15 h.

The test system of assay [1] is S. pneumoniae D39 ΔbceAB/tcs01. Conditions: D39 strain; 2-fold broth dilution, Todd-Hewitt medium, 37°C, 15 h; two to four biological replicates, each technical duplicates. The procedure: as §1
A general note: Broth dilution looks for growth in wells or tubes with falling amounts of substance.

The next assay has as its system S. pneumoniae D39 ΔbceAB. Conditions: D39 strain; 2-fold broth dilution, Todd-Hewitt medium, 37°C, 15 h; two to four biological replicates, each technical duplicates. Here is the method: as §1
In a further assay the test system is S. pneumoniae D39 Δtcs01. Particulars: D39 strain; 2-fold broth dilution, Todd-Hewitt medium, 37°C, 15 h; two to four biological replicates, each technical duplicates. The procedure:
as §1

In the next assay the test system is S. pneumoniae R6 WT. Conditions: R6 strain. The procedure: as §1
Assay [2] relates to S. pneumoniae R6 ΔbceAB/tcs01. Particulars: R6 strain; 2-fold broth dilution, Todd-Hewitt medium, 37°C, 15 h; two to four biological replicates, each technical duplicates. The procedure: as §1
In the next assay the test system is S. pneumoniae R6 ΔbceAB. Conditions: R6 strain; 2-fold broth dilution, Todd-Hewitt medium, 37°C, 15 h; two to four biological replicates, each technical duplicates. The procedure: as §1
Another assay deals with S. pneumoniae R6 Δtcs01. Particulars: R6 strain; 2-fold broth dilution, Todd-Hewitt medium, 37°C, 15 h; two to four biological replicates, each technical duplicates. The procedure:
as §1

The test system of a further assay is S. pneumoniae R800 WT. Particulars: R800 strain; 2-fold broth dilution, Todd-Hewitt medium, 37°C, 15 h; at least biological triplicates, each technical duplicates. Here is the method:
as §1

Assay [3] relates to S. pneumoniae R800 bceAB-gfp. Particulars: R800 strain; 2-fold broth dilution, Todd-Hewitt medium, 37°C, 15 h; at least biological triplicates, each technical duplicates. The procedure:
as §1

Assay [4] concerns S. pneumoniae R800 ΔbceAB-Δhk01-PcomX-hk01. Conditions: R800 complementation strain, 2 μM ComS inducer; 2-fold broth dilution, Todd-Hewitt medium, 37°C, 15 h; at least biological triplicates, each technical duplicates. Here is the method: as §1
For assay [5], the system named is S. pneumoniae R800 ΔbceAB. Conditions: R800 strain; 2-fold broth dilution, Todd-Hewitt medium, 37°C, 15 h; at least biological triplicates, each technical duplicates. Here is the method: as §1
Assay [6] has as its system S. pneumoniae R800 Δhk01-PcomX-hk01. The procedure: as §1
For the next assay, the system named is S. pneumoniae R800 Δhk01. Particulars: R800 strain; 2-fold broth dilution, Todd-Hewitt medium, 37°C, 15 h; at least biological triplicates, each technical duplicates. Here is the method: as §1
For assay [7], the system named is BceA-GFP in S. pneumoniae R800. The assay can be described thus: BceA-GFP expression by fluorescence microscopy and Western blot. Particulars: bacitracin 0.5 μg/mL, 30 min, 37°C, fluorescence microscopy of individual cells. The procedure:
Cells were inoculated in C+Y medium and grown at 37°C, without agitation and in anaerobic conditions, until at OD550nm = 0.3. After centrifugation 5 min at 5,000 g, pellets were resuspended in 1/50th of initial volume in TE buffer (25 mM Tris-HCl pH = 7.5, EDTA 1 mM) with DNase/RNase 6 μg/mL and protease inhibitor CLAPA 1X (Chymostatin 1 μg/mL, Pepstatin 1 μg/mL, Leupeptin 1 μg/mL, Antipaïn 1 μg/mL, Aprotinin 4 μg/mL). Cells were lysed by sonication by using Sonifier 450 Branson device. 25 μg of crude extracts were mixed with Laemmli loading buffer and heated 10 min at 95°C. Samples were loaded onto an 12.5% SDS-PAGE and migration was performed in TG-SDS buffer (Tris-HCl 25 mM, Glycine 0.192 M, SDS 0.1% (v/v)). Proteins were transferred onto a PVDF membrane, previously activated by methanol 100%, in a transfer buffer (Tris-HCl 25 mM pH = 8, Glycine 0.192 M, methanol 20% (v/v), SDS 0.04% (v/v)). The membrane was washed with TBST (Tris-HCl 100 mM pH = 8, NaCl 150 mM, Tween 0.05%) and incubated 1 h with blocking buffer (BSA 5%, TBST). […]
Pneumococcal cells were grown at 37°C until OD550nm = 0.2 in C+Y medium. […] Images were analyzed using ImageJ (http://rsb.info.nih.gov/ij/) and the plugin MicrobeJ to generate violin plots.
For orientation: A western blot detects proteins with antibodies after separation by electrophoresis.

The test system of assay [8] is S. pneumoniae R6 mutant strains (ΔbceAB, Δtcs01, ΔbceAB/tcs01). The assay can be described thus: Growth of wild-type and mutant strains in microplates with bacitracin. Conditions: Todd-Hewitt broth, various bacitracin concentrations, 4 biological replicates (Fig 1). The procedure:
as §1

In the case of `CC[C@H](C)[C@H](N)C1=N[C@H](C(=O)N[C@@H](CC(C)C)C(=O)N[C@H](CCC(=O)O)C(=O)N[C@H](C(=O)N[C@H]2CCCCNC(=O)[C@H](CC(N)=O)NC(=O)[C@@H](CC(=O)O)NC(=O)[C@H](Cc3cnc[nH]3)NC(=O)[C@@H](Cc3ccccc3)NC(=O)[C@H]([C@@H](C)CC)NC(=O)[C@@H](CCCN)NC2=O)[C@@H](C)CC)CS1` [bacitracin] ({Ileψ(thiazoline)Cys}-L[dE]IK[dOrn]I[dF]H[dD]N; lactam 4-C (inferred); N-terminus assumed), the “Minimum Inhibitory Concentration, WT” value amounted to 4 µg/mL in the assay with S. pneumoniae D39 WT (2-fold broth dilution, Todd-Hewitt medium, 37°C, 15 h, two to four biological replicates, each technical duplicates) and 8 µg/mL with S. pneumoniae R6 WT (2-fold broth dilution, Todd-Hewitt medium, 96-well plates, start OD600 0.002, 37°C, A600 followed 15 h, two to four biological replicates, each technical duplicates). For the same compound, in the assay with S. pneumoniae D39 WT (KO strains versus WT MIC), the “Fold sensitivity diplayed by the KO strains” value was 4. In addition, the “Minimum Inhibitory Concentration, ΔbceAB/tcs01” value in assay [1] and in assay [2] was 1 µg/mL each time. Besides, the “Minimum Inhibitory Concentration, ΔbceAB” value in the assay on S. pneumoniae D39 ΔbceAB and with S. pneumoniae R6 ΔbceAB was 1 µg/mL each time. Besides, the “Minimum Inhibitory Concentration, Δtcs01” value in the assay with S. pneumoniae D39 Δtcs01 and in the assay on S. pneumoniae R6 Δtcs01 was 1 µg/mL throughout. Besides, the “Fold sensitivity displayed by the KO strains” value in the assay with S. pneumoniae R6 WT (KO strains versus WT MIC) turned out to be 8. For the same compound, the “MIC, WT” value in the assay with S. pneumoniae R800 WT was determined as 4 µg/mL (≈ 2.81 µM). In addition, in assay [3], the “MIC, bceAB-gfp” value is 4 µg/mL (≈ 2.81 µM). In [4], the “MIC, ΔbceAB-Δhk01-PcomX-hk01” value amounted to 1 µg/mL (≈ 0.703 µM). In [5], the “MIC, ΔbceAB” value came out at 1 µg/mL (≈ 0.703 µM). For the same compound, the “Resistance as compared to the WT strain” value in [6] (R800-Δhk01-PcomX-rr01-hk01 versus R800 WT, from MICs) was found to be 64 fold. Further, the “MIC, Δhk01-PcomX-hk01” value in assay [6] (R800 complementation strain, 2 μM ComS inducer, 2-fold broth dilution, Todd-Hewitt medium, 37°C, 15 h, at least biological triplicates, each technical duplicates) is 256 µg/mL (≈ 180 µM). For the same compound, in the assay on S. pneumoniae R800 Δhk01, the “MIC, Δhk01” value was found to be 1 µg/mL (≈ 0.703 µM). For the same compound, the “Expression of BceA-GFP” value in assay [7] is “strongly activated”. Besides, in [8], the “Growth of the mutant strains” value was “severely impaired”.
